ChEMBL document CHEMBL4507302, “Data for DCP probe TP-020” (2021)

Tests used:
[1] = biological target: LIM domain kinase 1 (Homo sapiens) (UniProt P53667); details: Compound concentration 1000.0 nM
[2] = biological target: Macrophage colony-stimulating factor 1 receptor (Homo sapiens) (UniProt P07333); details: Compound concentration 1000.0 nM
[3] = biological target: Receptor-type tyrosine-protein kinase FLT3 (Homo sapiens) (UniProt P36888); details: Compound concentration 1000.0 nM
[4] = biological target: Fibroblast growth factor receptor 2 (Homo sapiens) (UniProt P21802); details: Compound concentration 1000.0 nM
[5] = biological target: Serine/threonine-protein kinase PLK3 (Homo sapiens) (UniProt Q9H4B4); details: Compound concentration 1000.0 nM
[6] = biological target: Histamine H2 receptor (Homo sapiens) (UniProt P25021); details: Compound concentration 10.0 uM
[7] = biological target: Serine/threonine-protein kinase tousled-like 1 (Homo sapiens) (UniProt Q9UKI8); details: Compound concentration 1000.0 nM
[8] = biological target: Calcium/calmodulin-dependent protein kinase type 1G (Homo sapiens) (UniProt Q96NX5); details: Compound concentration 1000.0 nM
[9] = biological target: Tyrosine-protein kinase receptor Tie-1 (Homo sapiens) (UniProt P35590); details: Compound concentration 1000.0 nM
[10] = biological target: Mitogen-activated protein kinase kinase kinase 19 (Homo sapiens) (UniProt Q56UN5); details: Compound concentration 1000.0 nM
[11] = biological target: Casein kinase I isoform gamma-1 (Homo sapiens) (UniProt Q9HCP0); details: Compound concentration 1000.0 nM
[12] = biological target: Serine/threonine-protein kinase PAK 6 (Homo sapiens) (UniProt Q9NQU5); details: Compound concentration 1000.0 nM
[13] = biological target: Ephrin type-B receptor 3 (Homo sapiens) (UniProt P54753); details: Compound concentration 1000.0 nM
[14] = biological target: RAF proto-oncogene serine/threonine-protein kinase (Homo sapiens) (UniProt P04049); details: Compound concentration 1000.0 nM
[15] = biological target: Dual specificity mitogen-activated protein kinase kinase 4 (Homo sapiens) (UniProt P45985); details: Compound concentration 1000.0 nM
[16] = biological target: Myosin light chain kinase family member 4 (Homo sapiens) (UniProt Q86YV6); details: Compound concentration 1000.0 nM
[17] = biological target: Serine/threonine-protein kinase Nek3 (Homo sapiens) (UniProt P51956); details: Compound concentration 1000.0 nM
[18] = biological target: Mitogen-activated protein kinase 4 (Homo sapiens) (UniProt P31152); details: Compound concentration 1000.0 nM
[19] = test system: Tyrosine-protein kinase ABL1 (Homo sapiens), P00519 [Q252H]; details: Compound concentration 1000.0 nM
[20] = biological target: Cyclin-dependent kinase 16 (Homo sapiens) (UniProt Q00536); details: Compound concentration 1000.0 nM
[21] = biological target: Serine/threonine-protein kinase 16 (Homo sapiens) (UniProt O75716); details: Compound concentration 1000.0 nM
[22] = test system: Epidermal growth factor receptor (Homo sapiens), P00533 [L858R,T790M]; details: Compound concentration 1000.0 nM
[23] = biological target: Serine/threonine-protein kinase ULK2 (Homo sapiens) (UniProt Q8IYT8); details: Compound concentration 1000.0 nM
[24] = test system: Phosphatidylinositol 4,5-bisphosphate 3-kinase catalytic subunit alpha isoform (Homo sapiens), P42336 [E542K]; details: Compound concentration 1000.0 nM
[25] = biological target: Serine/threonine-protein kinase Nek10 (Homo sapiens) (UniProt Q6ZWH5); details: Compound concentration 1000.0 nM
[26] = biological target: Interferon-induced, double-stranded RNA-activated protein kinase (Homo sapiens) (UniProt P19525); details: Compound concentration 1000.0 nM
[27] = biological target: Ribosomal protein S6 kinase alpha-4 (Homo sapiens) (UniProt O75676); details: Compound concentration 1000.0 nM
[28] = test system: Epidermal growth factor receptor (Homo sapiens), P00533 [UNDEFINED MUTATION]; details: Compound concentration 1000.0 nM
[29] = biological target: Serine/threonine-protein kinase pim-3 (Homo sapiens) (UniProt Q86V86); details: Compound concentration 1000.0 nM
[30] = biological target: MAP kinase-interacting serine/threonine-protein kinase 1 (Homo sapiens) (UniProt Q9BUB5); details: Compound concentration 1000.0 nM
[31] = biological target: Fibroblast growth factor receptor 1 (Homo sapiens) (UniProt P11362); details: Compound concentration 1000.0 nM
[32] = biological target: Aurora kinase C (Homo sapiens) (UniProt Q9UQB9); details: Compound concentration 1000.0 nM
[33] = biological target: Tyrosine-protein kinase Fyn (Homo sapiens) (UniProt P06241); details: Compound concentration 1000.0 nM
[34] = biological target: Ribosomal protein S6 kinase alpha-4 (Homo sapiens) (UniProt O75676); details: Compound concentration 1000.0 nM; remark: listed apart in the source
[35] = biological target: Serine/threonine-protein kinase D3 (Homo sapiens) (UniProt O94806); details: Compound concentration 1000.0 nM
[36] = biological target: Ephrin type-A receptor 2 (Homo sapiens) (UniProt P29317); details: Compound concentration 1000.0 nM
[37] = biological target: Interleukin-1 receptor-associated kinase 4 (Homo sapiens) (UniProt Q9NWZ3); details: Compound concentration 1000.0 nM
[38] = biological target: Ribosomal protein S6 kinase alpha-6 (Homo sapiens) (UniProt Q9UK32); details: Compound concentration 1000.0 nM
[39] = test system: Tyrosine-protein kinase ABL1 (Homo sapiens), P00519 [E255K]; details: Compound concentration 1000.0 nM
[40] = biological target: LIM domain kinase 2 (Homo sapiens) (UniProt P53671); details: Compound concentration 1000.0 nM
[41] = biological target: Serine/threonine-protein kinase PLK2 (Homo sapiens) (UniProt Q9NYY3); details: Compound concentration 1000.0 nM
[42] = test system: Tyrosine-protein kinase ABL1 (Homo sapiens), P00519 [Q252H]; details: Compound concentration 1000.0 nM; remark: listed apart in the source
[43] = biological target: Phosphatidylinositol 4,5-bisphosphate 3-kinase catalytic subunit delta isoform (Homo sapiens) (UniProt O00329); details: Compound concentration 1000.0 nM
[44] = test system: Proto-oncogene tyrosine-protein kinase receptor Ret (Homo sapiens), P07949 [V804M]; details: Compound concentration 1000.0 nM
[45] = biological target: Atypical kinase COQ8B, mitochondrial (Homo sapiens) (UniProt Q96D53); details: Compound concentration 1000.0 nM

Sequence of Ribosomal protein S6 kinase alpha-4 (Homo sapiens) (O75676 whole entry, looked up): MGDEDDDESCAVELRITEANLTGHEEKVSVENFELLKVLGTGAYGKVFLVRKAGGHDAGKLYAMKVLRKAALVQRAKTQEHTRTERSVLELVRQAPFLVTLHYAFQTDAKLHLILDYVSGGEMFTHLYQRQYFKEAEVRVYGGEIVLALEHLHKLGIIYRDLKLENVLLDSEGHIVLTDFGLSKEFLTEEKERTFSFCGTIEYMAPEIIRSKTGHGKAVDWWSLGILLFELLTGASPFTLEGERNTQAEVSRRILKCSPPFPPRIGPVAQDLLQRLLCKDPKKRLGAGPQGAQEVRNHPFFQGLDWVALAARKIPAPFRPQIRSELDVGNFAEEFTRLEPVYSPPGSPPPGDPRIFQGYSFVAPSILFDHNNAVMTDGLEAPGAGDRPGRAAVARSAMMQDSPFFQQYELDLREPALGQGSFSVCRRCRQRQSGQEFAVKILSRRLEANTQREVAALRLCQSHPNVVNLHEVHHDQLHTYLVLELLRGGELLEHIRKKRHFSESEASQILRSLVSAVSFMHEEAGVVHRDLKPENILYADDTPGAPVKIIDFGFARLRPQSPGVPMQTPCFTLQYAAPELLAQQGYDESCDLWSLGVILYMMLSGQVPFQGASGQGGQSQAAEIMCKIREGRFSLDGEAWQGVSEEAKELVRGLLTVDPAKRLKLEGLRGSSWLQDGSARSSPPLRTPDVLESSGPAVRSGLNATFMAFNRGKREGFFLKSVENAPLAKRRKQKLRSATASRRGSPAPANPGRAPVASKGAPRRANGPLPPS
Sequence of Macrophage colony-stimulating factor 1 receptor (Homo sapiens) (P07333 whole entry): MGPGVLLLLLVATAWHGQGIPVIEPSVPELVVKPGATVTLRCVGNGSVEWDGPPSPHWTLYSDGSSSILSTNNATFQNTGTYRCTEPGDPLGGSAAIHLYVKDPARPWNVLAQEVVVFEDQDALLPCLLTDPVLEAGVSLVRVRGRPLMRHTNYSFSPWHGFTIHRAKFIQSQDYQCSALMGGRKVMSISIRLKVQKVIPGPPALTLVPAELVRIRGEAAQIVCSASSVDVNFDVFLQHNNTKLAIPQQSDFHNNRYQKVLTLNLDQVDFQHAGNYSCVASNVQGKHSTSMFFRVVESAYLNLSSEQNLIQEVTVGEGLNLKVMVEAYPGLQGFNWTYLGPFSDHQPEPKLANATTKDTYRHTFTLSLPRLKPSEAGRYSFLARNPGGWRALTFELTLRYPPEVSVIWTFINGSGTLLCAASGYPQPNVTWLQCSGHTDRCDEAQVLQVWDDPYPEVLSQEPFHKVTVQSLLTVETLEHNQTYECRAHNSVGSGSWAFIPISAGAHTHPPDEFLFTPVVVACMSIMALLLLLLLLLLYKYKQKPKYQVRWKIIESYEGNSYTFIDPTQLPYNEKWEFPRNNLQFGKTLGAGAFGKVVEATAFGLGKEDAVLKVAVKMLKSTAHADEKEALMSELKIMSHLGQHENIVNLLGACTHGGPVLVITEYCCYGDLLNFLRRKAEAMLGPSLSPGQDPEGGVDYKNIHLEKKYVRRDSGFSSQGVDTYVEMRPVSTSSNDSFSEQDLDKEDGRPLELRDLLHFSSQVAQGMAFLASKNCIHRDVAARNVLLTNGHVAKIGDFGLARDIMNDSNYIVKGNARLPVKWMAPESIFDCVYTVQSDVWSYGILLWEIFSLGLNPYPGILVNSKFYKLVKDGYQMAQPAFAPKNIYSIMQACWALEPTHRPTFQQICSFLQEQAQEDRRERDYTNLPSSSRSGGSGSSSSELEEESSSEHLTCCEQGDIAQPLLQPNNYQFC
Sequence of RAF proto-oncogene serine/threonine-protein kinase (Homo sapiens) (P04049 whole entry): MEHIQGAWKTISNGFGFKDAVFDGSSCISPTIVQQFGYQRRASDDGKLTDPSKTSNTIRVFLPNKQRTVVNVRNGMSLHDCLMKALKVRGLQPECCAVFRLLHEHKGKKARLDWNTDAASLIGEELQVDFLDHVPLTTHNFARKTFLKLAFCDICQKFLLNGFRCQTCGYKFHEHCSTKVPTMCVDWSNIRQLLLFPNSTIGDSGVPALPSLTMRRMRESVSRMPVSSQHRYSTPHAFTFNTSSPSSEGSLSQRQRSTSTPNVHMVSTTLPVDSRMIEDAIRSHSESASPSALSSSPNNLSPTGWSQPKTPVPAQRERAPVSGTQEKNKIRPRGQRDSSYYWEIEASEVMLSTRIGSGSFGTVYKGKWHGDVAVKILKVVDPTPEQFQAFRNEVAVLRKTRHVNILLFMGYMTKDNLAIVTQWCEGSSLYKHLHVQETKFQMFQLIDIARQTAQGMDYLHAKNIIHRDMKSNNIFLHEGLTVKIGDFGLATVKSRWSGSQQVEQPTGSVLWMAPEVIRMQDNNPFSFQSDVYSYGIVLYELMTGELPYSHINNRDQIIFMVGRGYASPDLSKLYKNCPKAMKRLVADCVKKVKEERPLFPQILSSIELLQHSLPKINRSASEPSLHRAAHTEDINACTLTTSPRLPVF
Sequence of Serine/threonine-protein kinase PLK2 (Homo sapiens) (Q9NYY3 whole entry, looked up): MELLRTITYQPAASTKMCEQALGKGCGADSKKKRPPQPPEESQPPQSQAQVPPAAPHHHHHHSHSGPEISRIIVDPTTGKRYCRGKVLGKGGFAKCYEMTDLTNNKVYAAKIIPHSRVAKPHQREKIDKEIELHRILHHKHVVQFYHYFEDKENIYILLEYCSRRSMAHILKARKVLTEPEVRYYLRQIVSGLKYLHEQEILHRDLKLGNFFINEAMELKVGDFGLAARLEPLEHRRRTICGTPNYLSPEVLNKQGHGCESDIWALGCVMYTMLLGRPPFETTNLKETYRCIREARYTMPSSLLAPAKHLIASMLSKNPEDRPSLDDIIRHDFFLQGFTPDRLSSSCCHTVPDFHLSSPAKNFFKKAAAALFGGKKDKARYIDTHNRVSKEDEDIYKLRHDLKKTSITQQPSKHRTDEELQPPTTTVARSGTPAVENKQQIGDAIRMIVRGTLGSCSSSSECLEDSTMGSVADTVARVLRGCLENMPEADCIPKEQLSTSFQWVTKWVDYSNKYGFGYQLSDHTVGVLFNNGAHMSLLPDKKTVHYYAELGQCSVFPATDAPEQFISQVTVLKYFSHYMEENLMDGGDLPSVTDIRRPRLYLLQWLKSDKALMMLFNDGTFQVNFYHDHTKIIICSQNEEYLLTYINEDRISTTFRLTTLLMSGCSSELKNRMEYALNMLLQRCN
Sequence of Phosphatidylinositol 4,5-bisphosphate 3-kinase catalytic subunit delta isoform (Homo sapiens) (O00329 whole entry, canonical isoform): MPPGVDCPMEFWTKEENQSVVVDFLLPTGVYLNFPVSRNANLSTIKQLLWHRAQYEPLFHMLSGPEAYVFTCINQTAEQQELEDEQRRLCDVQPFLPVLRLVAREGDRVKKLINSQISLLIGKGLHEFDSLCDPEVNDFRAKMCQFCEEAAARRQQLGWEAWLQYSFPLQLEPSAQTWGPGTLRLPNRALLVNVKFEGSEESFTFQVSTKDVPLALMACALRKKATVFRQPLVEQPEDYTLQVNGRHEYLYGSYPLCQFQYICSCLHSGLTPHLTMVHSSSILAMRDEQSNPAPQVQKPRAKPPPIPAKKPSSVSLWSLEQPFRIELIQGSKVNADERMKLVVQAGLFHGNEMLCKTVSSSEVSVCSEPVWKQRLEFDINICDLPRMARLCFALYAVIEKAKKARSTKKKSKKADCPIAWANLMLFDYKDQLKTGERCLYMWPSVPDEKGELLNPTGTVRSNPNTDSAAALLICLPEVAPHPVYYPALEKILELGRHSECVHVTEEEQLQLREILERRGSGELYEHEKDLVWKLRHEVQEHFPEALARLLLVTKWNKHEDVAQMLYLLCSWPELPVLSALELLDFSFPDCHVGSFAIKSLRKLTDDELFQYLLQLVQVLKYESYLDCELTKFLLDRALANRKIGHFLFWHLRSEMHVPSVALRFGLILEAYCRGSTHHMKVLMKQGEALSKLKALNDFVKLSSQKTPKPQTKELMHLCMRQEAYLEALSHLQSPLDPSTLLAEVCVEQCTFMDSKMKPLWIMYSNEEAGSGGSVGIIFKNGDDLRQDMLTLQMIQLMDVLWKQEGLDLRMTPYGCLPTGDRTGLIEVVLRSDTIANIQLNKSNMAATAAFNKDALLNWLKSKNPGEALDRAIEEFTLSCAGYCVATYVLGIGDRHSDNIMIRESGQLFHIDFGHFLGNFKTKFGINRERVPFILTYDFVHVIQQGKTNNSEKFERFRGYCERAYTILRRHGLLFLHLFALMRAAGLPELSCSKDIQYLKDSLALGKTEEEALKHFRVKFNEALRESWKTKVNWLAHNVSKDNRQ
Sequence of Casein kinase I isoform gamma-1 (Homo sapiens) (Q9HCP0 whole entry, looked up, canonical isoform): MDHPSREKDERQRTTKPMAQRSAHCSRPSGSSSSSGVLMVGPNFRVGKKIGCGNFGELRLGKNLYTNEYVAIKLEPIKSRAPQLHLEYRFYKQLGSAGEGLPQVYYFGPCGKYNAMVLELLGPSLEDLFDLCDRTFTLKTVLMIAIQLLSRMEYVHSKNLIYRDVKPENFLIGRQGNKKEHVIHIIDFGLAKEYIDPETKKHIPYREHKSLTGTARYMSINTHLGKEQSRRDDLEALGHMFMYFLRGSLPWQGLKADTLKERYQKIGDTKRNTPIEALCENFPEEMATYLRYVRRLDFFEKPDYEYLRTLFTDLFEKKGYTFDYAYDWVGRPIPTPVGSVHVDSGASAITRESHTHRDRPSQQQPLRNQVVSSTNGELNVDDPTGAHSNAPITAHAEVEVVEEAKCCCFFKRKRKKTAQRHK
Sequence of Histamine H2 receptor (Homo sapiens) (P25021 whole entry): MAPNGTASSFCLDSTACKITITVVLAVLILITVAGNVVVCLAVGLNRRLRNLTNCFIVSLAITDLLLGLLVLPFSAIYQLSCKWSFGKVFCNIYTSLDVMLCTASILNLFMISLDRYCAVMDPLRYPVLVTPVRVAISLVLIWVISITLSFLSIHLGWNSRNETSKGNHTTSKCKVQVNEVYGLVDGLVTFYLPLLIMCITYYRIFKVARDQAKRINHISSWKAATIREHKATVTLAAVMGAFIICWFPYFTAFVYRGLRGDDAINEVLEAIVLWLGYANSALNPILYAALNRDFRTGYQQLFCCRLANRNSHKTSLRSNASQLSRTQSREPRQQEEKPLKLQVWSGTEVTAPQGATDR

Cn1nc(C(F)(F)F)cc1-c1cnc(N2CCc3cc(S(=O)(=O)Nc4c(F)cc(Cl)cc4F)cc(N4CCCC4=O)c32)nc1 [TP-020]
residual activity [1]: 100% | residual activity [2]: 91% | residual activity [3]: 85% | residual activity [4]: 100% | residual activity [5]: 79% | inhibition [6]: 12.1% | residual activity [7]: 78% | residual activity [8]: 100% | residual activity [9]: 100% | residual activity [10]: 82% | residual activity [11]: 100% | residual activity [12]: 100% | residual activity [13]: 95% | residual activity [14]: 100% | residual activity [15]: 88% | residual activity [16]: 99% | residual activity [17]: 90% | residual activity [18]: 100% | residual activity [19]: 99% | residual activity [20]: 77% | residual activity [21]: 92% | residual activity [22]: 100% | residual activity [23]: 74% | residual activity [24]: 85% | residual activity [25]: 80% | residual activity [26]: 100% | residual activity [27]: 82% | residual activity [28]: 100% | residual activity [29]: 100% | residual activity [30]: 72% | residual activity [31]: 99% | residual activity [32]: 100% | residual activity [33]: 94% | residual activity [34]: 85% | residual activity [35]: 100% | residual activity [36]: 100% | residual activity [37]: 82% | residual activity [38]: 84% | residual activity [39]: 89% | residual activity [40]: 100% | residual activity [41]: 91% | residual activity [42]: 85% | residual activity [43]: 84% | residual activity [44]: 98% | residual activity [45]: 100%

Nc1cnc(N2CCc3cc(S(=O)(=O)Nc4c(F)cc(Cl)cc4F)cc(N4CCCC4=O)c32)nc1
residual activity [1]: 100% | residual activity [2]: 100% | residual activity [3]: 81% | residual activity [4]: 100% | residual activity [5]: 100% | inhibition [6]: 8.19% | residual activity [7]: 100% | residual activity [8]: 100% | residual activity [9]: 100% | residual activity [10]: 100% | residual activity [11]: 97% | residual activity [12]: 100% | residual activity [13]: 100% | residual activity [14]: 79% | residual activity [15]: 100% | residual activity [16]: 100% | residual activity [17]: 100% | residual activity [18]: 100% | residual activity [19]: 98% | residual activity [20]: 98% | residual activity [21]: 100% | residual activity [22]: 77% | residual activity [23]: 100% | residual activity [24]: 72% | residual activity [25]: 100% | residual activity [26]: 41% | residual activity [27]: 100% | residual activity [28]: 63% | residual activity [29]: 98% | residual activity [30]: 98% | residual activity [31]: 88% | residual activity [32]: 100% | residual activity [33]: 58% | residual activity [34]: 96% | residual activity [35]: 88% | residual activity [36]: 100% | residual activity [37]: 100% | residual activity [38]: 100% | residual activity [39]: 85% | residual activity [40]: 100% | residual activity [41]: 100% | residual activity [42]: 100% | residual activity [43]: 88% | residual activity [44]: 100% | residual activity [45]: 100%
